Experimental findings from patent publication US20250163054A1, “SUBSTITUTED BICYCLIC HETEROARYL COMPOUNDS USEFUL AS INHIBITORS OF TLR9” (Bristol-Myers Squibb Company, priority 2022, published 2025) are described below.

Common to all, as to type: cell-based
Assay [1] addresses T1, human TLR8 (Homo sapiens, UniProt Q9NR97).
T1 construct: host or cells: HEK-Blue cells (HEK293-derived reporter line)
T1 sequence (Q9NR97 27-1041): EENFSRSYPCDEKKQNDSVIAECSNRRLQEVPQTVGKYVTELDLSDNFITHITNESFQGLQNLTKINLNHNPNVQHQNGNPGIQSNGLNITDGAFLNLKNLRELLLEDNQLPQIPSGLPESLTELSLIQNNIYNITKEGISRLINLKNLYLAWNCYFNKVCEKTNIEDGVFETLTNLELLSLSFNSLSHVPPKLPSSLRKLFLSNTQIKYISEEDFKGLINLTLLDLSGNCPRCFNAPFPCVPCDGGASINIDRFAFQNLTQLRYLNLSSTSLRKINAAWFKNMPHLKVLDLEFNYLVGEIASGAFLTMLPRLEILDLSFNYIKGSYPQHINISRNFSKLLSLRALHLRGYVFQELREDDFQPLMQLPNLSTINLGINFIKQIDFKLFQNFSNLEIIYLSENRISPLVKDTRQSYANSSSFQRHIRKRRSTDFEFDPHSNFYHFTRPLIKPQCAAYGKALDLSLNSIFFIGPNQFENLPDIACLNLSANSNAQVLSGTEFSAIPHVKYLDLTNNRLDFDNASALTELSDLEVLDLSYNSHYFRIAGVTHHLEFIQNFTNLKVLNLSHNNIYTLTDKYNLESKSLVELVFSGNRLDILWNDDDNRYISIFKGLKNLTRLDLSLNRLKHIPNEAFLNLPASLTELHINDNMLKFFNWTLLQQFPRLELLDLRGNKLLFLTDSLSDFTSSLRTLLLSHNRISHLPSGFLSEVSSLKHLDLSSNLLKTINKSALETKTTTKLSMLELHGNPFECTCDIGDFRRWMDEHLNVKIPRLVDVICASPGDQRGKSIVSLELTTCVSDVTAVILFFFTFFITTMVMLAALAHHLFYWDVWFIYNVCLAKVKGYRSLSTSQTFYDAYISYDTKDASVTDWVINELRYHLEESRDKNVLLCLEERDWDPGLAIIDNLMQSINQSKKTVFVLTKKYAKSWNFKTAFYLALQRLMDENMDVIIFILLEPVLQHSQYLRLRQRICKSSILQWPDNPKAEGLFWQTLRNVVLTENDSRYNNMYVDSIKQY
Put plainly: TLR7/8/9 Inhibition Reporter Assays (TLR8). To be noted: HEK-Blue cells overexpressing human TLR8, SEAP reporter, stimulated with TLR8 ligand R848. An outline of the steps: (§1)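 HEK-Blue cells overexpressing human TLR7, TLR8 or TLR9 with NF-κB/AP-1-driven SEAP reporter, pre-treated 60 min with compound ([…]). Stimulated with […] (TLR7), […] (TLR8) or ODN2006 200 nM (TLR9), then 22 h at 37° C; SEAP measured, % inhibition relative to agonist-plus-DMSO and known-inhibitor wells.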

For assay [2], the target named is T2, human TLR7 (Homo sapiens, UniProt Q9NYK1).
T2 construct: host or cells: HEK-Blue cells (HEK293-derived reporter line)
T2 sequence (Q9NYK1 27-1049): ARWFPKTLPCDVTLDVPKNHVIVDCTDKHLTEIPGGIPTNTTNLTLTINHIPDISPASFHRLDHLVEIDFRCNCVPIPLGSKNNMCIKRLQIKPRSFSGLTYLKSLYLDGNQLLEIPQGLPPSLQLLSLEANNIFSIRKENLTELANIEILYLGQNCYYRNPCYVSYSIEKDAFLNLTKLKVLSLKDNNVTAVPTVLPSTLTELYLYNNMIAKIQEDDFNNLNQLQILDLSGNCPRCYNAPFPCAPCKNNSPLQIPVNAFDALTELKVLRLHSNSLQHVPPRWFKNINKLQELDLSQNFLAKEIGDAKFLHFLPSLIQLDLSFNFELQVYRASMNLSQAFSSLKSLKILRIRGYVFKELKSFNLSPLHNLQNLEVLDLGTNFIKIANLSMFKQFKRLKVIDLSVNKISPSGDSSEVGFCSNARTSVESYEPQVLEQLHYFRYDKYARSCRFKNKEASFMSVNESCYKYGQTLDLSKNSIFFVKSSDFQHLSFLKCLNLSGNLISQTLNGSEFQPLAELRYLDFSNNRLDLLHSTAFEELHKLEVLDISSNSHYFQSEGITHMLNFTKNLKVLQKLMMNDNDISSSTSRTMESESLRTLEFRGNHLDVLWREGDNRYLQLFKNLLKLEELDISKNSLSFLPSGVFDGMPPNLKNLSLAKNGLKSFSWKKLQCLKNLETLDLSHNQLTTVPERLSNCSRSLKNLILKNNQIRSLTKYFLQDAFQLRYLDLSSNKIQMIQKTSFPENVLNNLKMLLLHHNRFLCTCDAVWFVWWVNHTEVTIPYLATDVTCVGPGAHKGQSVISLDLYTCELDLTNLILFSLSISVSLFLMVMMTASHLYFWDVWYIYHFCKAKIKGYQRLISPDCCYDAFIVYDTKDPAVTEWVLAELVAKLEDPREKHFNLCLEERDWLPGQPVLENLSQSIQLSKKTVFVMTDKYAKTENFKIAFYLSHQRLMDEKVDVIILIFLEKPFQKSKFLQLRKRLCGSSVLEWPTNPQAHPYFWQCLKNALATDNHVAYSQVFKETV
Put plainly: TLR7/8/9 Inhibition Reporter Assays (TLR7). As to conditions: HEK-Blue cells overexpressing human TLR7, SEAP reporter, stimulated with TLR7 ligand gardiquimod. An outline of the steps:
as §1
(In a reporter assay the amount or activity of a reporter protein is the signal.)

Assay [3] concerns the target T3, human TLR9 (Homo sapiens, UniProt Q9NR96).
T3 construct: host or cells: HEK-Blue cells (HEK293-derived reporter line)
T3 sequence (Q9NR96 26-1032): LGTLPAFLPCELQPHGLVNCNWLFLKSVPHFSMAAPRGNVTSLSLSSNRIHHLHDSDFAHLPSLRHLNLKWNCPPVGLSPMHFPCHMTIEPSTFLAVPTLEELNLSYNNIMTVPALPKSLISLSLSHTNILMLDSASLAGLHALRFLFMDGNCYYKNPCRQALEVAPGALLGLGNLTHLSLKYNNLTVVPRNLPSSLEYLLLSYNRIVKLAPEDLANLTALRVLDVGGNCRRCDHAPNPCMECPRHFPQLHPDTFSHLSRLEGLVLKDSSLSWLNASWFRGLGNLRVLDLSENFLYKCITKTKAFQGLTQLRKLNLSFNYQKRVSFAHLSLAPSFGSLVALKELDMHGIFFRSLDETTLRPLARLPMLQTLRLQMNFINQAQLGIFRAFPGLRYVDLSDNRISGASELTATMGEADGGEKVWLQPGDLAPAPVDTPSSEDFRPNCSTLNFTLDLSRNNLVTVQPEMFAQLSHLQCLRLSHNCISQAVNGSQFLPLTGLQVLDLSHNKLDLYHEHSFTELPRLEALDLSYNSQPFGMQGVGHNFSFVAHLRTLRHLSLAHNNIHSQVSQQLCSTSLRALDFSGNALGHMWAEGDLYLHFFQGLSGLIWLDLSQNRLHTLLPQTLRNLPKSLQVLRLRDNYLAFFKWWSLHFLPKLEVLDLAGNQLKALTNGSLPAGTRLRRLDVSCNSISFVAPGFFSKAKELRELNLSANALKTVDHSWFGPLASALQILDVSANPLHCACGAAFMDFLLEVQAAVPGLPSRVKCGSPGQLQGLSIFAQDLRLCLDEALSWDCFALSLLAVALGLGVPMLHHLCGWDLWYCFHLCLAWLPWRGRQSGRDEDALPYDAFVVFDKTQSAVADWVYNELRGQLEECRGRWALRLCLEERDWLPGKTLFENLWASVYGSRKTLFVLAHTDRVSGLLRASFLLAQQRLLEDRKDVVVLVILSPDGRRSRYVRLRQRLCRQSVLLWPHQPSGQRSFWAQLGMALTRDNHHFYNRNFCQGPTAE
Put plainly: TLR7/8/9 Inhibition Reporter Assays (TLR9). To be noted: HEK-Blue cells overexpressing human TLR9, SEAP reporter, stimulated with TLR9 ligand ODN2006. An outline of the steps: as §1

Each structure is given as a SMILES string. Some results are limits rather than exact numbers.

Usually IC50 stands for the midpoint of a concentration-inhibition curve. With `CC(C)N1CCC(N2CCC(c3cc4c(nc(-c5ccc(S(C)(=O)=O)cc5)n4C)c(C(F)(F)F)n3)CC2)CC1` [Example 3, 6-(1′-isopropyl-[1,4′-bipiperidin]-4-yl)-1-methyl-2-(4-(methylsulfonyl)phenyl)-4-(trifluoromethyl)-1H-imidazo[4,5-c]pyridine], the IC50 in assay [1] was > 50000 nM; in assay [2] it was 3100 nM; in assay [3], 110 nM.

As for `CS(=O)(=O)c1ccc(-c2nc3cnc(-c4ccc(N5CCN(CCCN6CCOCC6)CC5)cc4)cc3n2C2CC2)cc1` [Example 55, 4-(3-(4-(4-(1-cyclopropyl-2-(4-(methylsulfonyl)phenyl)-1H-imidazo[4,5-c]pyridin-6-yl)phenyl)piperazin-1-yl)propyl) morpholine], the concentration for half-maximal inhibition (IC50) was 640 nM in assay [1], 2400 nM in assay [2] and 99 nM in assay [3].

Regarding `COc1ccc(-c2nc3c(C)nc(-c4ccc(N5CCN(C(C)C)CC5)cc4)cc3n2C)cc1OC` [Example 1, 2-(3,4-dimethoxyphenyl)-6-(4-(4-isopropylpiperazin-1-yl)phenyl)-1,4-dimethyl-1H-imidazo[4,5-c]pyridine], the IC50 stood at 7400 nM in assay [1], 1000 nM in assay [2] and 220 nM in assay [3].

Turning to `Cc1nc(-c2ccc(N3CCN(CC4CC4)CC3)cc2)cc2c1nc(-c1ccc(S(C)(=O)=O)cc1)n2C` [Example 20, 6-(4-(4-(cyclopropylmethyl)piperazin-1-yl)phenyl)-1,4-dimethyl-2-(4-(methylsulfonyl)phenyl)-1H-imidazo[4,5-c]pyridine], the IC50 in assay [1] was 12000 nM; in assay [2], 2900 nM; in assay [3] it was 360 nM.

In the case of `Cc1nc(-c2ccc(CN3CCC(N4CCOCC4)CC3)cc2)cc2c1nc(-c1ccc(S(C)(=O)=O)cc1)n2C` [Example 54, 4-(1-(4-(1,4-dimethyl-2-(4-(methylsulfonyl)phenyl)-1H-imidazo[4,5-c]pyridin-6-yl)benzyl)piperidin-4-yl)morpholine], the IC50 in assay [1] was 9500 nM; in assay [2] it was > 50000 nM; in assay [3] it was 240 nM.

Take `Cc1nc(-c2ccc(C3CCN(C)CC3)cc2)cc2c1nc(-c1ccc(S(C)(=O)=O)cc1)n2C` [Example 26, 1,4-dimethyl-6-(4-(1-methylpiperidin-4-yl)phenyl)-2-(4-(methylsulfonyl)phenyl)-1H-imidazo[4,5-c]pyridine]: the figures for the IC50 in assay [1], in assay [2] and in assay [3] were 41000 nM, 6100 nM and 230 nM, respectively.

Consider `Cc1nc(-c2ccc(N3CC4(CCN(C(C)C)CC4)C3)cc2)cc2c1nc(-c1ccc(S(C)(=O)=O)cc1)n2C` [Example 63, 6-(4-(7-isopropyl-2,7-diazaspiro[3.5]nonan-2-yl)phenyl)-1,4-dimethyl-2-(4-(methylsulfonyl)phenyl)-1H-imidazo[4,5-c]pyridine], for which the IC50 in assay [1] turned out to be 5300 nM; in assay [2] it was 1400 nM; in assay [3], 170 nM.

Take `COc1ccc(-c2nc3c(C)nc(-c4ccc(N5CCC6(CC5)CN(CC(C)(C)O)C6)cc4)cc3n2C)cc1OC` [Example 92, 1-(7-(4-(2-(3,4-dimethoxyphenyl)-1,4-dimethyl-1H-imidazo[4,5-c]pyridin-6-yl)phenyl)-2,7-diazaspiro[3.5]nonan-2-yl)-2-methylpropan-2-ol]: the IC50 in assay [1] is > 50000 nM; in assay [2], 1500 nM; in assay [3], 1000 nM.

`Cc1nc(-c2ccc(N3CC4(C3)CN(C3COC3)C4)cc2)cc2c1nc(-c1ccc(S(C)(=O)=O)cc1)n2C` [Example 107, 1,4-dimethyl-2-(4-(methylsulfonyl)phenyl)-6-(4-(6-(oxetan-3-yl)-2,6-diazaspiro[3.3]heptan-2-yl)phenyl)-1H-imidazo[4,5-c]pyridine]: the values for the half-inhibitory concentration (IC50) in assay [1], in assay [2] and in assay [3] were > 50000 nM, 30000 nM and 980 nM, respectively.

Regarding `COc1ccc(-c2nc3c(C)nc(-c4ccc(N5CC6(C5)CN(C5CCC5)C6)cc4)cc3n2C)cc1OC` [Example 77, 6-(4-(6-cyclobutyl-2,6-diazaspiro[3.3]heptan-2-yl)phenyl)-2-(3,4-dimethoxyphenyl)-1,4-dimethyl-1H-imidazo[4,5-c]pyridine], the IC50 in assay [1] is 6900 nM; in assay [2] it was 870 nM; in assay [3], 13 nM.

As to `Cc1cc(-c2nc3c(C)nc(-c4ccc(N5CCN(C(C)C)CC5)cc4)cc3n2C)cc(C)n1` [Example 13, 2-(2,6-dimethylpyridin-4-yl)-6-(4-(4-isopropylpiperazin-1-yl)phenyl)-1,4-dimethyl-1H-imidazo[4,5-c]pyridine], the IC50 was > 50000 nM in assay [1], 1900 nM in assay [2] and 410 nM in assay [3].

Take `Cc1nc(-c2ccc(N3CCN(C(C)C)CC3)cc2)cc2c1nc(-c1ccc(S(C)(=O)=O)cc1)n2C` [Example 6, 6-(4-(4-isopropylpiperazin-1-yl)phenyl)-1,4-dimethyl-2-(4-(methylsulfonyl)phenyl)-1H-imidazo[4,5-c]pyridine]: the IC50 came out at 3000 nM in assay [1], 3100 nM in assay [2] and 800 nM in assay [3].
